In patent US8029764B2, “Methods for detection of colorectal cancer” (The Johns Hopkins University, priority 2001, dated 2011):

System: colorectal tissue transcripts
Assay: SAGE of normal, adenoma and cancer colorectal tissue (transcript tag counts)
Parameters: species or system human
Description: In an effort to identify potential molecular markers of early colorectal tumors, we have here analyzed gene expression in benign and malignant colorectal tumors in an unbiased and comprehensive fashion. We used SAGE to analyze global gene expression in normal, benign and malignant colorectal tissue. SAGE is a gene expression profiling method that associates individual mRNA transcripts with 15-base tags derived from specific positions near their 3′ termini (3). The abundance of each tag provides a quantitative measure of the transcript level present within the mRNA population studied. SAGE is not dependent on pre-existing databases of expressed genes, and therefore provides an unbiased view of gene expression profiles. For the current study, SAGE libraries derived from two samples of normal colonic epithelium, two colorectal adenomas, and two colorectal cancers were analyzed.
SAGE. For the initial SAGE^3 of benign tumors, fresh adenomas were obtained from surgical specimens derived from FAP patients. Adenomas from FAP patients were employed because of the ready availability of small lesions and the certainty of inactivation of the APC pathway which initiates the formation of the majority of sporadic tumors. After histopathological verification of the neoplastic nature of the lesion (>70% neoplastic cells), total RNA was isolated by solubilizing the tissue in RNAgents Lysis Buffer (Promega, Madison, Wis.) followed by ultracentrifugation over a cesium chloride gradient. mRNA selection was performed from the purified total RNA using oligo(dT) cellulose (Life Technologies, Gaithersburg, Md.). […] Tags were extracted from the raw sequence data and, after excluding repeated ditags, linker sequences, and tags from the polyrnorphic Major Histocompatibility loci, the resulting tag libraries were compared and statistical analysis performed using SAGE software, version 4.0. Data from the libraries are publicly available at the Uniform Resource Locator (URL) address for the http file type found on the www host server that has a domain name of ncbi.nlm.nih.gov, and a path to the directory SAGE, and detailed SAGE protocols are available at the Uniform Resource Locator (URL) address for the http file type found on the www host server that has a domain name of sagenet.org, and file name of sage_protocol.htn.

[1] = normal colorectal tissue library 1
[2] = normal colorectal tissue library 2

Sequence	AD1 (SAGE tag count) (SAGE library AD1)	AD2 (SAGE tag count) (SAGE library AD2)	CA1 (SAGE tag count) (SAGE library CA1)	CA2 (SAGE tag count) (SAGE library CA2)	NC1 (SAGE tag count) (SAGE library NC1)	NC2 (SAGE tag count) (SAGE library NC2)	AD1 (SAGE tag count) (adenoma library 1)	AD2 (SAGE tag count) (adenoma library 2)	CA1 (SAGE tag count) (cancer library 1)	CA2 (SAGE tag count) (cancer library 2)	NC1 (SAGE tag count) [1]	NC2 (SAGE tag count) [2]	NC2 (SAGE tag count) (SAGE library NC2, major histocompatibility complex, class I, A)	NC2 (SAGE tag count) (SAGE library NC2, major histocompatibility complex, class I, C)
GATCCCAACT (chemistry not fully specified)	5	7	1	1	9	29	–	–	–	–	–	–	–	–
AAGAAAGCTC (chemistry not fully specified)	0	2	1	5	20	6	–	–	–	–	–	–	–	–
TTTCTCGTCG (chemistry not fully specified)	–	–	–	–	–	–	2	3	0	2	10	16	–	–
GCCTGGCCAT (chemistry not fully specified)	4	6	10	14	26	34	–	–	–	–	–	–	–	–
GACGCGGCGC (chemistry not fully specified)	10	17	12	17	30	47	–	–	–	–	–	–	–	–
TAATTTGCAT (chemistry not fully specified)	–	–	–	–	–	–	1	1	2	0	25	2	–	–
CCACTGCACC (chemistry not fully specified)	5	5	6	14	21	19	–	–	–	–	–	–	–	–
GCGAAACTCG (chemistry not fully specified)	1	0	0	0	5	9	–	–	–	–	–	–	–	–
GCGCAGAGGT (chemistry not fully specified)	1	0	0	1	2	16	–	–	–	–	–	–	–	–
GTCCGAGTGC (chemistry not fully specified)	0	0	0	0	17	3	–	–	–	–	–	–	–	–
TGGCCATCTG (chemistry not fully specified)	–	–	–	–	–	–	8	7	3	4	30	24	–	–
CCTGCTTGTC (chemistry not fully specified)	0	3	0	5	20	23	–	–	–	–	–	–	–	–
TTATGGTGTG (chemistry not fully specified)	–	–	–	–	–	–	0	0	0	0	11	17	–	–
AAATCTGGCA (chemistry not fully specified)	2	4	2	0	16	15	–	–	–	–	–	–	–	–
GCACCCTTTC (chemistry not fully specified)	0	0	1	0	13	5	–	–	–	–	–	–	–	–
GTGCACTGAG (chemistry not fully specified)	14	7	12	13	118	–	–	–	–	–	–	–	48	45
TGCCGCCCGC (chemistry not fully specified)	–	–	–	–	–	–	2	2	1	0	14	5	–	–
CCTTCAAATC (chemistry not fully specified)	0	0	1	0	29	17	–	–	–	–	–	–	–	–
ACCCACGTCA (chemistry not fully specified)	3	5	3	1	22	10	–	–	–	–	–	–	–	–
TTCCGCGTTC (chemistry not fully specified)	–	–	–	–	–	–	0	0	2	2	5	16	–	–
TCACCGGTCA (chemistry not fully specified)	–	–	–	–	–	–	10	10	5	6	118	75	–	–
CCCCCTGCAT (chemistry not fully specified)	0	0	0	0	5	4	–	–	–	–	–	–	–	–
AGGCCAAGGG (chemistry not fully specified)	3	1	3	4	21	6	–	–	–	–	–	–	–	–
GCACCTGTCG (chemistry not fully specified)	0	0	1	0	2	9	–	–	–	–	–	–	–	–
AACGTGCAGG (chemistry not fully specified)	13	6	7	8	29	31	–	–	–	–	–	–	–	–
ATCGTGGCGG (chemistry not fully specified)	19	25	20	10	193	92	–	–	–	–	–	–	–	–
AAGAAGCAGG (chemistry not fully specified; the letters are possibly those of the target site)	3	4	1	3	8	16	–	–	–	–	–	–	–	–
TATGATGAGC (chemistry not fully specified)	–	–	–	–	–	–	2	2	1	5	13	21	–	–
